Assay results taken from patent US20210252115A1, “INHIBITION OF CATALYTIC SITE COMMON TO MULTIPLE 3 ALPHA-OXIDOREDUCTASES FOR TREATMENT OF PROSTATE CANCER” (Health Research, Inc., priority 2016, published 2021).
Entries after “also recorded” stand apart in the source; their conditions may differ.

Tests used:
[1] = tested on: SRD5A; experiment: Tissue DHT levels (LC-MS/MS), Selenium and Finasteride Pre-Treatment Trial; type: in vivo, human; conditions: research subjects with CaP before radical prostatectomy, benign and malignant macro-dissected samples; data not shown
[2] = tested on: VCaP cells; experiment: Androgen levels (LC-MS/MS) in VCaP cells; type: cell-based, human; conditions: for DHT levels after substrate treatment: VCaP, 12 h in SFM with 20 nM DIOL, 20 nM AND or 1 nM T, one cell pellet per condition; for DHT levels / DHT synthesis: VCaP in SFM, 1 μM dutasteride 12 h, no substrate added
Procedure: FIG. 8: Intracellular T and DHT levels from VCaP cells; Related to FIG. 3. VCaP cells were treated for 12 h in SFM with or without 1 μM Dut, 1 nM T, 20 nM DIOL or 20 nM AND. VCaP cells were harvested, one cell pellet was analyzed for each condition and androgen levels were measured using LC-MS/MS as described in Methods.
(§1) Experiments were performed in triplicate.
(§2) Empty plasmid, or plasmids for over-expression of RDH16 wild-type or RDH16-Y176F, K180R, were expressed into VCaP, C4-2 or CWR-R1 cells and DHT levels were measured using LC-MS/MS. […] C4-2 cells produced measurable levels of DHT that were reduced by dutasteride treatment (p=0.001; FIG. 6C; Table 10). […] C4-2 cells that expressed RDH16-Y176, K180R produced DHT levels similar to C4-2 cells with empty plasmid.

[3] = tested on: LAPC-4 cells; experiment: Androgen levels (LC-MS/MS) in transfected LAPC-4 cells; type: cell-based, human; conditions: for DHT levels after substrate treatment: 20 nM DIOL or 1 nM T 12 h, vs SFM; for 5α-dione production after substrate treatment: 20 nM DIOL or 20 nM AND 12 h
Procedure: LAPC-4 cells were plated at 1.2×10^5/well and CV-1 cells at 1×10^4/well in 6-well tissue culture plates (Corning). Media and cell pellets from two 6-well plates were combined to generate 1 media and 1 cell pellet sample for liquid chromatography-tandem mass spectrometry (LC-MS/MS) analysis. LAPC-4 cells were transfected using the Effectene Transfection Kit (Invitrogen, Grand Island, N.Y.). Forty-eight h after transfection, growth media was removed and LAPC-4 cells were washed once with Dulbecco's phosphate buffered saline (PBS, Corning). LAPC-4 cells were treated with serum-free complete media (SFM, Corning) alone or with 1 nM T, 20 nM DIOL 20 nM 5α-androstan-3α-ol-17-one (androsterone; AND) (Steraloids, Newport, R.I.) or 1 μM dutasteride (Selleckchem, Houston, Tex.) for 12 h. CV-1 cells were transfected using X-tremeGene HP transfection reagent (Roche Diagnostics Corporation, Indianapolis, Ind.). After 48 h, growth media were aspirated, CV-1 cells were washed once with PBS and incubated in SFM alone or with 20 nM AND (Steraloids) for 12 h.
After 12 h treatment, media (total 24 mL) were collected in 50 mL conical tubes (Corning). Cells were released using trypsin and collected in 15 mL conical tubes (Corning). The cells were washed 3 times using PBS, re-suspended in 1 mL PBS and 5% of the cell suspension was removed for protein concentration measurement and western blot analysis. The remaining 95% of the cell suspension was centrifuged and the supernatant was removed and discarded. Cell pellets were stored at −80° C. until analyzed using LC-MS/MS.
(§3) Cell pellet and media samples were analyzed over 9 runs for 5 androgens T, DHT, dehydroepiandrosterone, ASD and AND using a validated LC-MS/MS method. […] Study samples were quantitated using aqueous-based spiked calibration standards and pre-spiked quality control samples prepared in 2× charcoal-stripped human postmenopausal female plasma (Bioreclamation, LLC, Westbury, N.Y.).
Androgen concentrations (pmoles/mg protein) in cell lysates measured using LC-MS/MS (ng/mL) were multiplied by the total volume of the lysate (1 mL), normalized by the total amount of protein of the cell pellet (mg), divided by the molecular weight of the androgen (ng/nmole), and converted to pmoles. Media androgen concentrations (ng/mL) were multiplied by the total volume of media (24 mL), normalized against total protein of the cell culture (mg), divided by the molecular weight of the androgen (ng/nmole) and converted to pmoles. Cell pellet and media androgen concentrations were reported combined in Results and separately in Supplemental Results. Experiments were performed in triplicate.
Cell pellets were resuspended in HPLC-grade water and vortexed or sonicated to disrupt cell membranes to obtain a homogeneous suspension. Samples were extracted using 0.25 ml quality control, plasma blank or sample in 0.75-2.0 mL HPLC-grade water, 0.1 ml internal standard (IS) solution (75.0/225 pg/mL d3-T/d3-DHT) and 4 mL methyl-tert-butyl ether (MTBE, Omnisolve®, EMD Milipore, Billerica, Mass.) in glass screw-top tubes. Calibrators were prepared using 50 μl spiking solution prepared in 75% methanol and added to the extraction tube. Either the entire 1 mL cell pellet suspension was added to the extraction tube and the original container rinsed with 25% methanol in water or samples were volume and compositionally corrected. Tubes were capped with Teflon-lined caps, vortexed, rotated 15 min and centrifuged using a Sorvall model RT6000B centrifuge (Thermo Scientific) at 2,800 rpm and 4° C. for 15-30 min to separate liquid phases. The aqueous phase was frozen in a dry ice/acetone bath and MTBE layer was poured into a clean glass conical tube. MTBE was evaporated at 37° C. with nitrogen and the residue was reconstituted with 60% methanol. The suspension was centrifuged using Heraeus Multifuge X3R centrifuge (Thermo Scientific) at 2,800 rpm and 4° C. for 5 min to separate insoluble materials. An aliquot of the supernatant was injected. […]

[4] = tested on: CV-1 cells; conditions: CV-1, 20 nM AND 12 h, measurable only in the media
Procedure: LAPC-4 cells were plated at 1.2×10^5/well and CV-1 cells at 1×10^4/well in 6-well tissue culture plates (Corning). Media and cell pellets from two 6-well plates were combined to generate 1 media and 1 cell pellet sample for liquid chromatography-tandem mass spectrometry (LC-MS/MS) analysis. LAPC-4 cells were transfected using the Effectene Transfection Kit (Invitrogen, Grand Island, N.Y.). Forty-eight h after transfection, growth media was removed and LAPC-4 cells were washed once with Dulbecco's phosphate buffered saline (PBS, Corning). […]
After 12 h treatment, media (total 24 mL) were collected in 50 mL conical tubes (Corning). […] Cell pellets were stored at −80° C. until analyzed using LC-MS/MS.
as §3
Androgen concentrations (pmoles/mg protein) in cell lysates measured using LC-MS/MS (ng/mL) were multiplied by the total volume of the lysate (1 mL), normalized by the total amount of protein of the cell pellet (mg), divided by the molecular weight of the androgen (ng/nmole), and converted to pmoles. […]

[5] = tested on: C4-2 cells; experiment: DHT levels (LC-MS/MS) in transfected C4-2 cells; type: cell-based, human
Procedure: as §1, §2

[6] = tested on: CWR-R1 cells; experiment: DHT levels (LC-MS/MS) in transfected CWR-R1 cells; type: cell-based, human
Procedure: as §1, §2

[7] = CaP, background statement; cited from earlier work
[8] = tested on: LNCaP cells; experiment: Androgen levels (LC-MS/MS) in transfected LNCaP cells; type: cell-based, human; conditions: dutasteride 12 h, cell pellet
Procedure: FIG. 11: Intracellular LNCaP T levels after treatment with dutasteride or SFM. Related to FIG. 6. LNCaP cells were transfected with empty plasmid, wild-type or Y176F, K180R RDH16, treated with SFM or SFM with dutasteride for 12 h and cell pellet androgen levels were measured using LC-MS/MS. T levels for LNCaP and western blot analysis for DDK tag.
as §1

Question: Which “CaP tissue levels of DHT” value [1] does the source give for `CC(C)(C)NC(=O)[C@H]1CC[C@H]2[C@@H]3CC[C@H]4NC(=O)C=C[C@]4(C)[C@H]3CC[C@]12C` [finasteride] here?
Answer: decreased

Question: Which “DHT levels after substrate treatment” value [2] does the source give for `C[C@]12CC[C@H]3[C@@H](CCC4=CC(=O)CC[C@@]43C)[C@@H]1CC[C@@H]2O` [T, testosterone] here?
Answer: not

Question: And the “DHT levels after substrate treatment” value ([3]; LAPC-4 with empty plasmid)?
Answer: higher

Question: With `C[C@]12CC[C@@H](O)C[C@@H]1CC[C@@H]1[C@@H]2CC[C@]2(C)C(=O)CC[C@@H]12` [AND, 5α-androstan-3α-ol-17-one] as the molecule, how does the “DHT levels after substrate treatment” value [2] read?
Answer: increased

Question: What about the “5α-dione production after substrate treatment” value (shortened to “5α-dione production”) [4] of the same molecule?
Answer: only a small amount

Question: And the “5α-dione production” value ([3]; LAPC-4 with empty plasmid)?
Answer: produced

Question: Which “DHT levels after substrate treatment” value [2] does the source give for `C[C@]12CC[C@@H](O)C[C@@H]1CC[C@@H]1[C@@H]2CC[C@]2(C)[C@@H](O)CC[C@@H]12` [DIOL, 5α-androstane-3α, 17β-diol] here?
Answer: increased

Question: And the “DHT levels after substrate treatment” value ([3]; LAPC-4 with empty plasmid)?
Answer: higher

Question: And the “5α-dione production” value ([3]; LAPC-4 with empty plasmid)?
Answer: produced

Question: Which DHT levels ([5]; C4-2 expressing wild-type RDH16, dutasteride vs SFM) does the source give for `C[C@]12C=CC(=O)N[C@@H]1CC[C@@H]1[C@@H]2CC[C@]2(C)[C@@H](C(=O)Nc3cc(C(F)(F)F)ccc3C(F)(F)F)CC[C@@H]12` [dutasteride] here?
Answer: appeared to be reduced

Question: And the DHT levels ([5]; C4-2 with empty plasmid, dutasteride vs SFM, p=0.001 in text)?
Answer: reduced

Question: What about the DHT levels ([2]; VCaP expressing wild-type RDH16, dutasteride vs SFM) of the same molecule?
Answer: affected minimally

Question: What about the “DHT levels / DHT synthesis” value [2] of the same molecule?
Answer: did not lower

Question: What about the “DHT levels / DHT synthesis” value ([2]; listed as Dutasteride) of the same molecule?
Answer: did not impair DHT synthesis

Question: And the DHT levels ([6]; CWR-R1 expressing RDH16-Y176F, K180R, dutasteride vs SFM)?
Answer: appeared lower

Question: And the DHT levels ([6]; CWR-R1 with empty plasmid or wild-type RDH16, dutasteride vs SFM)?
Answer: did not lower

Question: And the “intratumoral DHT levels” value [7]?
Answer: not depleted

Question: And the DHT levels ([3]; LAPC-4 expressing mutant RDH16 or DHRS9 plus dutasteride, vs LAPC-4 treated with dutasteride alone)?
Answer: lowered further

Question: And the DHT levels ([3]; LAPC-4 expressing wild-type RDH16 or DHRS9, 1 μM dutasteride 12 h vs SFM)?
Answer: No effect

Question: What about the DHT levels ([3]; LAPC-4 with empty plasmid, 1 μM dutasteride 12 h vs SFM, cell pellet, p=0.041) of the same molecule?
Answer: decreased; also recorded: lower

Question: What about the T levels ([3]; all LAPC-4 cells except those expressing RDH5-Δcat, dutasteride 12 h, cell pellet) of the same molecule?
Answer: lowered

Question: What about the T levels [8] of the same molecule?
Answer: not detected
